The values below come from publication PMC12857768 (Journal of medicinal chemistry, 2024).

Entries after “also recorded” stand apart in the source; their conditions may differ.

For one series, the target named is Pyk2 kinase (Homo sapiens, UniProt Q14289). The series can be described thus: Pyk2 kinase activity assay. It counts as biochemical. The note with it: for Pyk2 kinase inhibitory effect (in words): kinase inhibitory assay.
The subject of the next series is skin lesions. Description: Skin lesions / adverse side effects in mice during the in vivo study. Also noted: species or system C57BL/6 female mice. The settings on record: 10 mg/kg oral gavage 5 times per week.
Series [1] concerns circulating organ toxicity biomarkers. Description: In vivo toxicity: circulating markers of organ toxicities. The arrangement: species or system mice. The note with it: serum/plasma at end of study, 10 mg/kg oral gavage, N = 9-10.
In another series the test system is GC-induced bone loss. The settings on record: murine model of GC excess; previous studies; cited from earlier work.

Pyk2 kinase, sequence (Q14289 whole entry): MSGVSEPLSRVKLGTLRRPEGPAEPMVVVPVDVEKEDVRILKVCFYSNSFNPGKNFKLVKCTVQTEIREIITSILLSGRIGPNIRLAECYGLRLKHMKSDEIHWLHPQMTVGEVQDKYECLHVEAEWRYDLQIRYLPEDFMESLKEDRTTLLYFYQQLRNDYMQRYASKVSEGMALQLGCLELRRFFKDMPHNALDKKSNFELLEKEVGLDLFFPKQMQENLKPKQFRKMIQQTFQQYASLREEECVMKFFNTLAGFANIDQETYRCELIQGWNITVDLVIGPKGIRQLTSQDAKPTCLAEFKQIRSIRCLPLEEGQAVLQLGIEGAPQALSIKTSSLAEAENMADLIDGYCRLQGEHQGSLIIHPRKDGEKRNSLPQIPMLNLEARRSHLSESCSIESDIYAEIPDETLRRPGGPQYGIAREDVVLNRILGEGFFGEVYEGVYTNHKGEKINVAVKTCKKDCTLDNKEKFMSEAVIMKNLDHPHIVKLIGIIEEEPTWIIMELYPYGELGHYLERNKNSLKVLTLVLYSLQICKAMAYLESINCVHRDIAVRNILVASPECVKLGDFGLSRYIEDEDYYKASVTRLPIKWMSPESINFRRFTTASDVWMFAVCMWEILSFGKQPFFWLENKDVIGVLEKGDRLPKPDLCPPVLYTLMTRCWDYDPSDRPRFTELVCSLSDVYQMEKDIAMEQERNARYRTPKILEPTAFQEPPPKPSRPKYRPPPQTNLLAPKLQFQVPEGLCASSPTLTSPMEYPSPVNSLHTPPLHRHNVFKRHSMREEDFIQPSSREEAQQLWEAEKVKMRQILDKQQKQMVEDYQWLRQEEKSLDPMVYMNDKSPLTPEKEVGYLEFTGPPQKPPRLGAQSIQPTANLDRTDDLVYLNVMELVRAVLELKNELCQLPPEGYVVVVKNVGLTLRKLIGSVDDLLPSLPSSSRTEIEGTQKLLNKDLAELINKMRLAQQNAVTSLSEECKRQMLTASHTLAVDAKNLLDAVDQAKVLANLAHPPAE

For the compound `CNC(=O)c1ccccc1Nc1nc(Nc2ccc(NC(=O)CCCCC(=O)NCCCC(O)(P(=O)(O)O)P(=O)(O)O)cc2OC)ncc1Cl` [BT-Amide, (4-(6-((4-((5-Chloro-4-((2-(methylcarbamoyl)phenyl)amino)pyrimidin-2-yl)amino)-3-methoxyphenyl)amino)-6-oxohexanamido)-1-hydroxybutane-1,1-diyl)bis(phosphonic Acid)], the “Pyk2 kinase inhibitory effect (in words)” value on Pyk2 kinase is “moderate inhibitory effects”. The “Skin lesions / adverse side effects (in words)” value with skin lesions was “no adverse side effects were observed”. Further, the “Circulating organ toxicity biomarkers vs control groups” value in series [1] (10 mg/kg) is listed as “no significant difference; also recorded: None of the markers were significantly elevated above control levels”.

Turning to `CNC(=O)c1ccccc1Nc1nc(Nc2ccc(N3CCC(OC(=O)CCCCC(=O)NCCCC(O)(P(=O)(O)O)P(=O)(O)O)CC3)cc2OC)ncc1Cl` [BT-Ester, (4-(6-((1-(4-((5-Chloro-4-((2-(methylcarbamoyl)phenyl)amino)pyrimidin-2-yl)amino)-3-methoxyphenyl)piperidin-4-yl)oxy)-6-oxohexanamido)-1-hydroxybutane-1,1-diyl)bis(phosphonic Acid)], on Pyk2 kinase, the IC50 is 119 ± 41 nM and the “Pyk2 kinase inhibitory effect (in words)” value was “low inhibition”. In addition, the “Skin lesions / adverse side effects (in words)” value in the series on skin lesions is “did not develop skin lesions”. The “Circulating organ toxicity biomarkers vs control groups” value in series [1] is recorded as “None of the markers were significantly elevated above control levels”.

In the case of `CN(c1ccccc1CNc1nc(Nc2ccc3c(c2)CC(=O)N3)ncc1C(F)(F)F)S(C)(=O)=O` [PF-431396], in the series on GC-induced bone loss, the “Prevention of GC-induced bone loss” value is “prevents GC-induced bone loss”.

A word on the IC50: it is the concentration that gives 50% inhibition. A low value points to higher potency.
